What was measured:
[1] = Single dose safety and pharmacokinetic study in subjects with NASH and control healthy subjects; assay type: in vivo, human
Procedure: The present Example was a randomized, dose ranging, single dose safety and pharmacokinetic study of 25HC3S administered to subjects with NASH and control healthy subjects. […] For each cohort, 10 subjects with NASH were enrolled which were further classified into cirrhotic and non-cirrhotic. Each subject received only one dose of study treatment. The second cohort was dosed after a review of safety and tolerability data from Cohort 1.

[2] = Excretion after single oral (gavage) dose in rats; assay type: in vivo; conditions: 75 mg/kg single oral (gavage) dose
[3] = Tissue distribution by quantitative whole body autoradiography after single intravenous dose; assay type: in vivo, Sprague Dawley rats; conditions: 10 mg/kg intravenous
Text: (§1) The objectives of this study were to determine the plasma pharmacokinetics of [4-^14C]-25HC3S-derived radioactivity in male Sprague Dawley rats, determine the routes of elimination and excretion mass balance of [4-^14C]-25HC3 S-derived radioactivity in male Sprague Dawley rats, determine the tissue distribution and tissue pharmacokinetics of [4-^14C]-25HC3S-derived radioactivity using quantitative whole body autoradiography methods in male Sprague Dawley and Long Evans rats following a single intravenous (bolus) dose, and to provide plasma, urine, and fecal homogenate samples for metabolite profiling of [4-^14C]-25HC3 S-derived radioactivity.
(§2) Nine male Sprague Dawley rats (Group 1) were designated for the pharmacokinetic phase, 3 male Sprague Dawley rats (Group 2) for the excretion mass balance phase, and 7 male Sprague Dawley rats (Group 3) and 9 male Long Evans rats (Group 4) for the tissue distribution phase. All animals received a single intravenous dose of [^14C]-25HC3S at 10 mg/kg and a target radioactivity of 225 μCi/kg. Blood samples were collected from all Group 1 animals at approximately 0.083, 0.25, 0.5, 1, 2, 4, 8, 12, 24, 48, and 72 hours post-dose. Urine and feces were collected from all Group 2 animals periodically through 168 hours post-dose. […] Following blood collection, animals were euthanized by CO2 inhalation and carcasses frozen in a dry ice/hexane bath for processing by quantitative whole body autoradiography. Whole blood, plasma, urine, feces, cage rinse, and cage wash were analyzed for total radioactivity by liquid scintillation counting.

[4] = Tissue distribution by quantitative whole body autoradiography after single oral (gavage) dose; assay type: in vivo, Sprague Dawley rats; conditions: 75 mg/kg oral
[5] = Plasma pharmacokinetics after single oral (gavage) dose in rats; assay type: in vivo; conditions: 75 mg/kg single oral (gavage) dose
Procedure: The terminal elimination phase T1/2 was 27.3 hours.

[6] = Plasma pharmacokinetics of radioactivity after single intravenous dose in rats; assay type: in vivo, Sprague Dawley rats; conditions: 10 mg/kg single intravenous (bolus) dose
Text: as §1, §2

[7] = Metabolite profiling of plasma and feces after oral dose in rats; assay type: in vivo; conditions: 75 mg/kg oral
Procedure: Radiolabeled components in plasma and feces extracts were profiled and identified using radio-high performance liquid chromatography (HPLC) and high performance liquid chromatography/mass spectrometry (HPLC/MS) methods.
Plasma pools were prepared for Group 1 (75 mg/kg, [^14C]-25HC3S) samples collected at 2, 4, and 6 hours post-dose. […] One metabolite M29 was identified as 25-hydroxycholesterol with 37% ROI and a concentration of 1233 ng-equiv./g.
Feces pools were prepared for Group 2 (75 mg/kg, [^14C]-25HC3S) samples collected from 0 to 24, 24 to 48, 48 to 72, 72 to 96, 96 to 120, 120 to 144, and 144 to 168 hours post-dose. A total of eleven metabolites were identified. None of the metabolites were present at ≥5% of dose. Metabolites present at 2-5% of dose were M1 (4.5% of total dose and 1%-69% ROI), M3 (4.6% of total dose and 1%-44% ROI), M4 (2.0% of total dose and 0%-10% ROI), M8 (3.1% of total dose and 1%-46% ROI), […], and M30 (3.3% of total dose and 0%-5% ROI).

C[C@H](CCCC(C)(C)O)[C@H]1CC[C@H]2[C@@H]3CC=C4C[C@@H](OS(=O)(=O)[O-])CC[C@]4(C)[C@H]3CC[C@]12C.[Na+] [25HC3S sodium]
difference between healthy and NASH subjects in pharmacokinetics (Cmax and AUC) ([1]; 50 mg and 200 mg): no clear difference | increase of geometric mean Cmax in NASH subjects over healthy subjects ([1]; Cohorts 1 and 2): 18-24% | increasing trends in exposure (AUC parameters) in NASH subjects ([1]; NASH versus healthy subjects): up to 31%

C[C@H](CCCC(C)(C)O)[C@H]1CC[C@H]2[C@@H]3CC=C4[14CH2][C@@H](OS(=O)(=O)O)CC[C@]4(C)[C@H]3CC[C@]12C [[4-^14C]-25HC3S]
dose recovered in urine, feces, and cage rinse [2]: approximately 94.5% | recovered radioactivity in feces [2]: 94.2% | AUClast in liver [3]: ≤ 364,000 h·ng/g | concentrations in thymus, bone (femur), uveal tract, fat, testes, and brain (approximate) [3]: around 1500 ng-equiv./g | concentrations in thymus, bone (femur), uveal tract, fat, testes, and brain (bound) [3]: < 5000 ng-equiv./g | tissue concentrations by 168 hours postdose [3]: below quantitation limit in all tissues except adrenal gland, harderian gland, liver, and small intestine | tissue:plasma ratio (AUClast), liver [3]: 11.4 | tissue:plasma ratio (AUClast), small intestine (wall) [3]: 7.44 | tissue distribution of drug and/or its metabolites ([3]; Group 3): broadly distributed and detected by quantitative whole body autoradiography in all tissues except the eye (lens) | plasma:whole blood AUClast ratio [4]: 1.12 | skin, thymus, prostate, and pituitary tissue concentrations [4]: < 3000 ng equiv./g | tissue Tmax [4]: ≤ 6 h | tissue concentrations by 168 hours post-dose [4]: near or below the quantitation limit in all tissues except adrenal gland and liver | tissue distribution of drug and/or its metabolites [4]: broadly distributed and detected by quantitative whole body autoradiography in all tissues except the eye (lens) | tissue:plasma ratio (AUClast), adrenal gland [4]: 6.64 | tissue:plasma ratio (AUClast), liver [4]: 6.96 | tissue:plasma ratio (AUClast), small intestine (wall) [4]: 15.4 | uveal tract and brain concentrations [4]: approximately 1000 ng equiv./g | whole blood AUClast [4]: 127,000 h·ng equiv./g | plasma AUClast (radioactivity) [5]: 96,400 h·ng equiv./g | terminal elimination phase T1/2 [5]: 27.3 h | mean plasma C0 (radioactivity) [6]: 25,900 ng-equiv./g | plasma AUClast (radioactivity) [6]: 27,900 h*ng-equiv./g | terminal elimination phase T1/2, plasma [6]: 26.6 h

desmosterol sulfate
presence in plasma or feces samples [7]: not found
